Laboratory results taken from publication PMC10637926 (Heliyon, 2023).

Molecular target: AChE enzyme from Electrophorus electricus (electric eel) (Electrophorus electricus, UniProt O42275)
Assay: In vitro AChE inhibition, Ellman spectrophotometric procedure
Assay type: biochemical
Settings: for IC50: IC50 against AChE, dose dependent assay, 412 nm; for inhibition at 100 µM: read-out: AChE inhibition, mean of R1-R3

AChE enzyme from Electrophorus electricus (electric eel), sequence (O42275 24-633): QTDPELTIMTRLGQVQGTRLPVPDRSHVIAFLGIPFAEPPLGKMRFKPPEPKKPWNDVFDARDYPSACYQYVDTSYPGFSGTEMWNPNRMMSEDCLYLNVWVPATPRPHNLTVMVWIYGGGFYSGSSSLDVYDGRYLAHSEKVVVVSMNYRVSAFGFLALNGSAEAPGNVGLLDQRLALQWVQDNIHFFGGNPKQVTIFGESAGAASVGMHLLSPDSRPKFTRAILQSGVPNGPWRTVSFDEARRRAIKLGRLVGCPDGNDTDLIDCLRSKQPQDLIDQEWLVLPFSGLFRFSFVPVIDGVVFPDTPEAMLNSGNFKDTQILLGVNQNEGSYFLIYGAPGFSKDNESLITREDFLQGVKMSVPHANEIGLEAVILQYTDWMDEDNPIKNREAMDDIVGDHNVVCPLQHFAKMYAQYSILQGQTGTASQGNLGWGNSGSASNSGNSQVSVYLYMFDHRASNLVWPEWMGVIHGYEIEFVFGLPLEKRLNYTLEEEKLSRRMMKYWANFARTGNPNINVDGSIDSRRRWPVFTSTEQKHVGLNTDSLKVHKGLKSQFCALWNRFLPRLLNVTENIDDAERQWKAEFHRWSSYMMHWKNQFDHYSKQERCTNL

Compound | IC50 [µM] | inhibition at 100 µM [%]
O=c1cc(-c2ccc(O)cc2)oc2cc(O)cc(O)c12 [Apigenin] | 13.8 | 80
O=c1c(O)c(-c2ccc(O)c(O)c2)oc2cc(O)cc(O)c12 [Quercetin] | – | 85.7
COc1c(O)cc(O)c2c(=O)cc(-c3ccccc3)oc12 [Wogonin] | 15.5 | 80.3
